Results on 17 compounds are retold here after ChEMBL document CHEMBL3734756, “Novel -carbolinequinazolinone hybrid as an inhibitor of Leishmania donovani trypanothione reductase: Synthesis, molecular docking and bioevaluation” (Medchemcomm, 2015).

One series deals with Trypanothione reductase (Leishmania donovani, UniProt P39050). The experiment in a line: Competitive inhibition of recombinant Leishmania donovani trypanothione reductase expressed in Escherichia coli BL21 (DE3) by Dixon plot analysis in presence of trypanothione disulphide.
Chain of Trypanothione reductase (P39050 whole entry): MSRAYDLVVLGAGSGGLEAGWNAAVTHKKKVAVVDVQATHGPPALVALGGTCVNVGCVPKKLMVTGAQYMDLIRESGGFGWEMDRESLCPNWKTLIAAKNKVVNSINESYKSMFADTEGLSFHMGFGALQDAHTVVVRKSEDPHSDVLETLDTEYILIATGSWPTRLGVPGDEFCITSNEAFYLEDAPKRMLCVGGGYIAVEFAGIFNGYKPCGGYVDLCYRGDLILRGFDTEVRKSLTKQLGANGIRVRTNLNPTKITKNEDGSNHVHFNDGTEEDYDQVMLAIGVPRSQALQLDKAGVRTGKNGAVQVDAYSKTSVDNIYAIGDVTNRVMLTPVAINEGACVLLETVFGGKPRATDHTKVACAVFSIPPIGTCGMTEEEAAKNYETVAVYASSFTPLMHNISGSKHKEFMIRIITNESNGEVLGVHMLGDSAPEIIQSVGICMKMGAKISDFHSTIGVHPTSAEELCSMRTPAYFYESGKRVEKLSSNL
The test system of series [1] is Leishmania donovani. The experiment in a line: Antileishmanial activity against extracellular promastigote stage of Leishmania donovani after 96 hrs by luciferase reporter gene assay. Type of series: functional, organism-based. A general note: Reporter assays use an easily measured gene product as a stand-in for the process of interest.
For series [2], the target named is Trypanothione reductase (Leishmania donovani) (UniProt P39050). The experiment in a line: Inhibition of recombinant Leishmania donovani trypanothione reductase expressed in Escherichia coli BL21 (DE3) using trypanothione disulphide as substrate at 100 uM preincubated for 5 mins followed by substrate addition by microplate reader analysis relative to control.
Chain of Trypanothione reductase (Leishmania donovani) (P39050 whole entry): as above
Series [3] has the same target. The experiment in a line: Inhibition of recombinant Leishmania donovani trypanothione reductase expressed in Escherichia coli BL21 (DE3) using trypanothione disulphide as substrate at 50 uM preincubated for 5 mins followed by substrate addition by microplate reader analysis relative to control.
The test system of series [4] is Leishmania donovani. The experiment in a line: Antileishmanial activity against amastigote stage of Leishmania donovani infected in mouse J774A.1 cells after 72 hrs by luciferase reporter gene assay. It counts as functional, organism-based. The note with it: J774.A1, 72 h.
Series [5] can be described thus: (§1) Selectivity index, ratio of CC50 for African green monkey Vero cells to IC50 for amastigote stage of Leishmania donovani infected in mouse J774A.1 cells. Type of series: functional.
Series [6] in a line: Cytotoxicity against African green monkey Vero cells assessed as cell viability after 72 hrs by MTT assay. The note with it: chlorocebus sabaeus. Type of series: cell-based. For orientation: Tetrazolium assays rely on reduction of a dye to a coloured formazan, in cell work by metabolically active cells.
The test system of the next series is Vero. The series is described as §1. It counts as functional.

The source made the active and inactive calls. The calls are words filed in the database; no cut-off is given here.

A word on the Ki: it is the dissociation constant of the complex between target and ligand, obtained from inhibition or displacement. In general, IC50 refers to the concentration needed to halve the response being measured. Usually inhibition stands for how much of the control response was suppressed. As for `CCN1C(=O)c2ccccc2NC1c1nc(C(=O)OC)cc2c1[nH]c1ccccc12` (stereo unspecified), the Ki at Trypanothione reductase is 6.5 µM. Also, the half-maximal inhibitory concentration (IC50) in the series with Leishmania donovani [1] was 8.5 µM; in the series with Leishmania donovani [4], over 40 µM. Besides, the inhibition was 75% in series [2] and 58% in series [3].
For the compound `COC(=O)c1cc2c([nH]c3ccccc32)c(C2Nc3ccccc3C(=O)N2Cc2ccccc2)n1` (stereo unspecified), the inhibition in series [2] amounted to 11%; in series [3] it was 6%.
Usually CC50 stands for the concentration giving 50% cytotoxicity. Regarding `COC(=O)c1cc2c([nH]c3ccccc32)c(C2Nc3ccccc3C(=O)N2c2ccc(Cl)cc2)n1` (stereo unspecified), the Ki at Trypanothione reductase is 7.2 µM. Besides, the concentration for half-maximal inhibition (IC50) came to 3.3 µM in the series on Leishmania donovani [1] and 4.4 µM with Leishmania donovani [4]. In addition, the “Ratio CC50/IC50” value in series [5] is recorded as over 91. Besides, the inhibition in series [2] stood at 67%; in series [3] it was 64%. For the same compound, the CC50 at 72 h in series [6] is over 400 µM.
On to `COC(=O)c1cc2c([nH]c3ccccc32)c(C2Nc3ccccc3C(=O)N2c2ccc(F)cc2)n1` (stereo unspecified), for which, on Trypanothione reductase, the Ki turned out to be 3.9 µM. The IC50 in the series on Leishmania donovani [1] turned out to be 4.6 µM; with Leishmania donovani [4], 6 µM. Moreover, in series [5], the “Ratio CC50/IC50” value is 36. Also, the inhibition amounted to 96% in series [2] and 81% in series [3]. Besides, the CC50 at 72 h in series [6] is 217 µM.
Consider `COC(=O)c1cc2c([nH]c3ccccc32)c(C2Nc3ccccc3C(=O)N2C2CC2)n1` (stereo unspecified), for which the inhibition result in series [2] and in series [3] was “inactive” throughout.
In the case of `COC(=O)c1cc2c([nH]c3ccccc32)c(C2Nc3ccccc3C(=O)N2C2CCCCC2)n1` (stereo unspecified), the inhibition in series [2] is 1%. For the same compound, the inhibition result in series [3] was “inactive”.
As for `COC(=O)c1cc2c([nH]c3ccccc32)c(C2Nc3ccccc3C(=O)N2c2ccccc2)n1` (stereo unspecified), the figures for the inhibition in series [2] and in series [3] were 18% and 16%, respectively.
The like results for `COC(=O)c1cc2c([nH]c3ccccc32)c(C2Nc3ccccc3C(=O)N2c2ccc(OC)cc2)n1` (stereo unspecified) were, in that order, “inactive” and “inactive”.
Turning to `COC(=O)c1cc2c([nH]c3ccccc32)c(C2Nc3ccccc3C(=O)N2Cc2ccc(OC)cc2)n1` (stereo unspecified), the inhibition constant Ki at Trypanothione reductase stood at 9.2 µM. In addition, the half-inhibitory concentration (IC50) was found to be 5.4 µM in the series on Leishmania donovani [1] and 35.2 µM in the series with Leishmania donovani [4]. Further, the “Ratio CC50/IC50” value in series [5] is reported as 3. Moreover, the inhibition in series [2] was 60%; in series [3] it was 56%. Besides, the half-maximal cytotoxic concentration (CC50) at 72 h in series [6] worked out at 106 µM.
In the case of `CCCCCN1C(=O)c2ccccc2NC1c1nc(C(=O)OC)cc2c1[nH]c1ccccc12` (stereo unspecified), the Ki at Trypanothione reductase is 0.8 µM. The IC50 is 9.9 µM with Leishmania donovani [1] and over 40 µM with Leishmania donovani [4]. Besides, the inhibition in series [2] stood at 99%; in series [3], 90%.
For sodium stibogluconate, in the series with Vero, the Ratio CC50/IC50 came to 7.
For `CCCN1C(=O)c2ccccc2NC1c1nc(C(=O)OC)cc2c1[nH]c1ccccc12` (stereo unspecified), the inhibition turned out to be 9% in series [2] and 7% in series [3].
For the compound `COC(=O)c1cc2c([nH]c3ccccc32)c(C2Nc3ccccc3C(=O)N2C2CCCCCC2)n1` (stereo unspecified), the inhibition entry in series [2] and in series [3] was “inactive” each time.
Take `COC(=O)c1cc2c([nH]c3ccccc32)c(C2Nc3ccccc3C(=O)N2Cc2ccc(Cl)c(Cl)c2)n1` (stereo unspecified): the Ki on Trypanothione reductase was found to be 3.7 µM. In addition, the values for the IC50 in the series with Leishmania donovani [1] and in the series on Leishmania donovani [4] were 4.8 µM and 4.3 µM, respectively. The “Ratio CC50/IC50” value in series [5] is recorded as 24. Besides, the inhibition worked out at 85% in series [2] and 77% in series [3]. In addition, the CC50 at 72 h in series [6] came out at 104 µM.
Turning to `COC(=O)c1cc2c([nH]c3ccccc32)c(C2Nc3ccccc3C(=O)N2C2CCCC2)n1` (stereo unspecified), the inhibition in series [2] is 30%; in series [3], 20%.
The like results for `CCCCN1C(=O)c2ccccc2NC1c1nc(C(=O)OC)cc2c1[nH]c1ccccc12` (stereo unspecified) were, in that order, 35% and 28%.
Consider `CCCCCCCCCCCCCCCCOP(=O)([O-])OCC[N+](C)(C)C` [MILTEFOSINE], for which the half-inhibitory concentration (IC50) in the series with Leishmania donovani [1] was found to be 1.2 µM; in the series with Leishmania donovani [4] it was 8.1 µM. Further, the “Ratio CC50/IC50” value in series [5] is recorded as 7. In addition, the CC50 at 72 h in series [6] was 56.5 µM.
